“Also recorded” adds a separate entry of the source.
Tests used:
Type in all cases: in vivo, mouse
DPPIV−/− knockout mice [1] = experiment: LSEC engraftment/repopulation of irradiated liver by DPPIV staining (Examples 2 and 3)
Description: (§1) 8-12-week-old male and female Di-peptyl peptidase IV (DPPIV) −/− knockout mice and 8-12-week-old male and female C57Bl6 mice were used in this study. Animals were weighed in the beginning of the experiment and before tissue collection. All animals were housed in the Institute for Animal Studies at Albert Einstein College of medicine and fed regular rodent chow. All experiments were performed to according to protocols approved by Institutional Animal Care and Use Committee at Albert Einstein College of Medicine. Animals were made cirrhotic using CCl4 administration (intraperitoneal [IP] injections twice a week for at least 11 weeks).
Image-guided external beam irradiation was performed using a small animal radiation research platform (SARRP, Xstrahl Inc., Suwanee, Ga.). Mice were given gastrografin contrast through gavage to improve visualization of the gastrointestinal (GI) tract. After approximately 2 minutes, mice were positioned on a tubular couch and anesthetized with ˜2% Isofluorane (Isothesia, USP) in 2 L/min pure oxygen. A cone-beam computed tomography (CBCT) scan was acquired and a treatment plan irradiating the median lobe and right lobe was generated using the MuriPlan software. […] Within the targeted lobes, the position of the isocenter was chosen to minimize irradiation of the GI tract, spine, and heart (the maximum dose to these organs was kept below 10 Gy). Targets were irradiated with 50 Gy X-rays at 220 kVp energy and 13 mA tube current (dose rate of 2.4-2.5 Gy/min) using a 1 mm copper filter for beam hardening.
TPOm was diluted in sterile PBS to a 10 mg/ml stock. The stock was stored at −20° C. and allowed to come to room temperature prior to administration. TPOm was administered as a single dose (300 μg/kg) via subcutaneous injection 10 minutes after the transplant procedure.
DPPIV was selected as a marker for engraftment of exogenous LSECs in the DPPIV (−/−) animals. […] Slide imaging was done using a Perkin Elmer P250 High Capacity Slide Scanner.
LSECs were isolated from the single-cell suspension using CD146 microbeads (Miltenyi Biotec GmbH #130-092-007).
Following isolation of LSECs, 500×10^5 LSECs are transplanted via intrasplenic injection into healthy adult mice anesthetized with Isoflurane (Isothesia, USP) 24 hrs post HIR. Buprenorphine is given post-op as an analgesic.
To test the efficacy of TPOm as an agent that can cause LSEC engraftment, DPPIV−/− knockout mice received 50GY hepatic irradiation (HIR) to the median and right lobes of the liver using external-beam CT-guided x-ray irradiation, and LSECs that express DPPIV (FIG. 2A).
The methods were identical to those described above with the exception that the LSEC transplant was administered 4-5 days post irradiation and the TPOm or Romiplostim were administered approximately 10 minutes post LSEC transplant.

DPPIV KO mice = experiment: Engraftment of transplanted LSECs and hepatocytes by DPPIV immunostaining after HIR (Example 7); details: Study A
Description: 8-12-week-old male Di-peptyl peptidase IV knockout (Dppiv^−/−) mice and 8-12-week-old male C57BL/6 mice were used in this study.
The methods were identical to Experiment 5 as described above; including the preparation of test articles (solutions of RWJ-800088), isolation and transplant of LSECs, and Hepatic irradiation. In addition, Romiplostim was purchased from pharmacy and came in 250 μg powder. It was reconstituted per manufacturers description using solvent for solution for injection. After reconstitution, a deliverable volume of 0.5 mL solution contained 250 μg of romiplostim (500 μg/mL).
Animals were weighed in the beginning of the experiment.
The mice were transplanted with DPPIV^+ 5×10^5 liver sinusoidal endothelial cells (LSECs) intrasplenically 4 or 5 days later. The mice were then injected with 300 μg/kg of RWJ-800088 or Romiplostim intraperitoneally 10 minutes after LSEC transplantation as shown in Table 7.
The mice were then monitored until they made a full recovery and returned to the cage. The mice were followed for 2 and 5 months and necropsied. The liver was excised and prepared for the frozen section. The immunostaining of DPPIV activity was performed to examine the repopulation of the transplanted DPPIV^+ cells in the liver. […]

DPPIV−/− knockout mice [2] = experiment: Relative change of dissected liver lobe size after hepatic irradiation (Example 2)
Description: as §1
Image-guided external beam irradiation was performed using a small animal radiation research platform (SARRP, Xstrahl Inc., Suwanee, Ga.). Mice were given gastrografin contrast through gavage to improve visualization of the gastrointestinal (GI) tract. After approximately 2 minutes, mice were positioned on a tubular couch and anesthetized with ˜2% Isofluorane (Isothesia, USP) in 2 L/min pure oxygen. A cone-beam computed tomography (CBCT) scan was acquired and a treatment plan irradiating the median lobe and right lobe was generated using the MuriPlan software. […]

methoxypolyethyleneglycol20000-propionyl-L-Isoleucyl-L-Glutamyl-Glycyl-L-Prolyl-L-Threonyl-L-Leucyl-L-Arginyl-L-Glutaminyl-L-2-Naphthylalanyl-L-Leucyl-L-Alanyl-L-Alanyl-L-Arginyl-Sarcosyl-Ne-(methoxypolyethyleneglycol20000-propionyl-L-Isoleucyl-L-Glutamyl-Glycyl-L-Prolyl-L-Threonyl-L-Leucyl-L-Arginyl-L-Glutaminyl-L-2-Naphthyl alanyl-L-Leucyl-L-Alanyl-L-Alanyl-L-Arginyl-Sarcosyl-)-Lysinamide [RWJ-800088]
repopulation of irradiated liver by transplanted DPPIV(+/+) LSECs (DPPIV staining) (DPPIV−/− knockout mice [1]; 50GY HIR + LSEC transplant 24 hrs post HIR, growth stimulus given after transplant, listed as TPOm): massive LSEC repopulation
animals with some level of hepatic repopulation (DPPIV−/− knockout mice [1]; LSEC+TPOm+HIR): 6/7
Engraftment when LSEC transplant is administered 24 hours post irradiation (DPPIV−/− knockout mice [1]; targeted liver irradiation (50 Gy)): Yes
Engraftment when LSEC transplant is administered 4-5 days post irradiation (DPPIV−/− knockout mice [1]; targeted liver irradiation (50 Gy), drug approximately 10 minutes post LSEC transplant): Yes
repopulation of LSECs in the irradiated liver tissue (DPPIV immunostaining) (DPPIV KO mice; 2 months after HIR, 50 Gy, LSECs 4 or 5 days after HIR, 300 μg/kg intraperitoneally 10 minutes after LSEC transplantation): repopulation of LSECs in the irradiated liver tissue was observed
DPPIV staining of liver lobes (DPPIV KO mice; 5 months after HIR, two surviving mice (mouse 1: median, right, left lobes; mouse 2: median and right lobes), listed as RWJ-80088): extensively positive staining; also recorded: strong DPPIV staining
DPPIV staining of 4 different liver lobes (DPPIV KO mice; one mouse at 2 months after HIR, median lobe least area covered): All 4 lobes showed positive staining
volume of the non-irradiated left lobe (DPPIV−/− knockout mice [2]; 2-months post-HIR, HIR then LSECs+/−RWJ-800088 at 24-hours post-HIR): trend for an increase
size of the irradiated lobes (median and right) (DPPIV−/− knockout mice [2]; RWJ-800088 and HIR only): trend for a reduction
